Measured values: ChEMBL document CHEMBL4196101, “Dual Leucine Zipper Kinase Inhibitors for the Treatment of Neurodegeneration” (J Med Chem, 2018)

Target: Mitogen-activated protein kinase kinase kinase 12 (Homo sapiens) (UniProt Q12852)
Test: Inhibition of DLK (unknown origin) using myelin basic protein as substrate preincubated for 15 mins measured after 30 mins in presence of [gamma-32P]ATP by scintillation counting

Sequence of Mitogen-activated protein kinase kinase kinase 12 (Homo sapiens) (Q12852 whole entry, looked up): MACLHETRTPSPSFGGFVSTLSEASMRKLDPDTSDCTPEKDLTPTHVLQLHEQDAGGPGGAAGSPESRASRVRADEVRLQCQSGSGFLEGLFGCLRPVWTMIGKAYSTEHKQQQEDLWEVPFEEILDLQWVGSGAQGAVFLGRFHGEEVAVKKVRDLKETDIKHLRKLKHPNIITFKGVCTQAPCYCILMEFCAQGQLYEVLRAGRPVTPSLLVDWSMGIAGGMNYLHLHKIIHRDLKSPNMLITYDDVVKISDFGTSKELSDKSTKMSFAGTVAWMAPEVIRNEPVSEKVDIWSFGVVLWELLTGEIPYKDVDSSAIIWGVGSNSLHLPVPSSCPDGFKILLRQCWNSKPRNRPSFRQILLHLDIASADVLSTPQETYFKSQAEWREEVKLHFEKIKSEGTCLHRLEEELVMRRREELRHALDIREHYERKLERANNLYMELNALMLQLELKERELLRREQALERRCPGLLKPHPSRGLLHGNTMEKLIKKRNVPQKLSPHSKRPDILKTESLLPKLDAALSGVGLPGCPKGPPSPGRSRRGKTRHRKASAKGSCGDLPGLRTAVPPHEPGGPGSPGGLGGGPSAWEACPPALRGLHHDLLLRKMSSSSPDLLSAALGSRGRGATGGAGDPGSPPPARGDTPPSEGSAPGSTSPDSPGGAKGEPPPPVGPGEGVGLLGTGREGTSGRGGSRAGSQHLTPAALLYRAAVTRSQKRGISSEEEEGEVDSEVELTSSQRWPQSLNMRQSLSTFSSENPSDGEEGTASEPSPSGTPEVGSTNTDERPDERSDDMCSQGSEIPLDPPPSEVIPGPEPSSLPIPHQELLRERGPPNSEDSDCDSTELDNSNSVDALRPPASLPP

Work on `CCSCc1ccc2c(c1)c1c3c(c4c5cc(CSCC)ccc5n5c4c1n2[C@H]1C[C@](O)(C(=O)OC)[C@]5(C)O1)CNC3=O` [CEP-1347] yielded an IC50 of 114 nM.
